According to ChEMBL document CHEMBL6109103, “Dodecapeptides derived from human cathelicidin with potent activity against carbapenem-resistant Acinetobacter baumannii” (Eur J Med Chem, 2025):
≈ marks a conversion by molar mass, not a printed value. Positions of bridges follow the written chain, without caps; N, C: chain ends. Non-standard residues stand in square brackets, D forms with d. Residues, ends and D or L forms follow the SMILES beside them. S5 = C=CCCC[C@](C)(N)C(=O)O

Assays:
Type in all cases: functional
Staphylococcus aureus [1] = experiment: Antibacterial activity against Methicillin-resistant Staphylococcus aureus ATCC 43300 assessed as inhibition of bacterial growth incubated for 24 hrs by broth dilution assay
Acinetobacter baumannii [2] = experiment: Antibacterial activity against Acinetobacter baumannii ATCC 19606 assessed as inhibition of bacterial growth incubated for 24 hrs by broth dilution assay
Staphylococcus aureus [3] = experiment: Antibacterial activity against Staphylococcus aureus […] assessed as inhibition of bacterial growth incubated for 24 hrs by broth dilution assay
Acinetobacter baumannii [4] = experiment: Antibacterial activity against multidrug-resistant Acinetobacter baumannii assessed as inhibition of bacterial growth incubated for 24 hrs by broth dilution assay

Row | Compound | MIC (Staphylococcus aureus [1]) | MIC (Acinetobacter baumannii [2]) | MIC (Staphylococcus aureus [3]) | MIC (Acinetobacter baumannii [4])
1 | H-KRIVKRIKKFLR-OH | 160 µg/mL | 160 µg/mL | > 320 µg/mL | > 320 µg/mL
2 | CC[C@H](C)[C@@H]1NC(=O)[C@H](CCCNC(=N)N)NC(=O)[C@@](C)(N)CCC/C=C\CCC[C@@](C)(C(=O)N[C@H](C(=O)N[C@@H](Cc2ccccc2)C(=O)N[C@@H](CC(C)C)C(=O)N[C@@H](CCCNC(=N)N)C(=O)O)[C@@H](C)CC)NC(=O)[C@H]([C@@H](C)CC)NC(=O)[C@H](CCCNC(=N)N)NC(=O)[C@H](CCCNC(=N)N)NC(=O)[C@H](C(C)C)NC1=O (H-[S5]RIVRRI[S5]IFLR-OH; staple (Z) 1-8) | 160 µg/mL (≈ 100 µM) | 80 µg/mL (≈ 50.2 µM) | 320 µg/mL (≈ 201 µM) | 40 µg/mL (≈ 25.1 µM)
3 | O=C(O)c1cn(C2CC2)c2cc(N3CCNCC3)c(F)cc2c1=O [CIPROFLOXACIN] | 160 µg/mL (≈ 483 µM) | 2.5 µg/mL (≈ 7.54 µM) | 2.5 µg/mL (≈ 7.54 µM) | 320 µg/mL (≈ 966 µM)
4 | H-KRIVRRIKRFLR-OH | > 320 µg/mL | 320 µg/mL | > 320 µg/mL | 320 µg/mL
5 | CC[C@H](C)[C@H](NC(=O)[C@H](CCCNC(=N)N)NC(=O)[C@@H](N)CCCCN)C(=O)N[C@H](C(=O)N[C@@H](CCCNC(=N)N)C(=O)N[C@@]1(C)CCC/C=C/CCC[C@@](C)(C(=O)N[C@@H](CC(C)C)C(=O)N[C@@H](CCCNC(=N)N)C(=O)O)NC(=O)[C@H]([C@@H](C)CC)NC(=O)[C@H](CCCCN)NC(=O)[C@H]([C@@H](C)CC)NC1=O)C(C)C (H-KRIVR[S5]IKI[S5]LR-OH; staple (E) 6-10) | 80 µg/mL (≈ 51.8 µM) | 10 µg/mL (≈ 6.47 µM) | 80 µg/mL (≈ 51.8 µM) | 10 µg/mL (≈ 6.47 µM)
6 | H-NLVPRTES-OH | > 320 µg/mL | > 320 µg/mL | > 320 µg/mL | > 320 µg/mL
7 | H-KRIVQRIKIFLR-OH | > 320 µg/mL | 40 µg/mL | 160 µg/mL | 20 µg/mL
8 | CC[C@H](C)[C@@H]1NC(=O)[C@H](CCCCN)NC(=O)[C@H]([C@@H](C)CC)NC(=O)[C@H](CCCNC(=N)N)NC(=O)[C@@](C)(NC(=O)[C@@H](NC(=O)[C@@H](NC(=O)[C@H](CCCNC(=N)N)NC(=O)[C@@H](N)CCCCN)[C@@H](C)CC)C(C)C)CCC/C=C\CCC[C@@](C)(C(=O)O)NC(=O)[C@H](CC(C)C)NC(=O)[C@H](Cc2ccccc2)NC1=O (H-KRIV[S5]RIKIFL[S5]-OH; staple (Z) 5-12) | 80 µg/mL (≈ 52.1 µM) | 80 µg/mL (≈ 52.1 µM) | > 320 µg/mL | 40 µg/mL (≈ 26 µM)
9 | CC[C@H](C)[C@@H]1NC(=O)[C@H](CCCNC(=N)N)NC(=O)[C@H](CCCNC(=N)N)NC(=O)[C@H](C(C)C)NC(=O)[C@@](C)(NC(=O)[C@H](CCCNC(=N)N)NC(=O)[C@@H](N)CCCCN)CCC/C=C/CCC[C@@](C)(C(=O)N[C@@H](CC(C)C)C(=O)N[C@@H](CCCNC(=N)N)C(=O)O)NC(=O)[C@H]([C@@H](C)CC)NC(=O)[C@H](CCCCN)NC1=O (H-KR[S5]VRRIKI[S5]LR-OH; staple (E) 3-10) | 80 µg/mL (≈ 50.4 µM) | 20 µg/mL (≈ 12.6 µM) | 80 µg/mL (≈ 50.4 µM) | 10 µg/mL (≈ 6.3 µM)
10 | CC[C@H](C)[C@@H]1NC(=O)[C@H](CCCNC(=N)N)NC(=O)[C@@](C)(NC(=O)[C@@H](NC(=O)[C@@H](NC(=O)[C@H](CCCNC(=N)N)NC(=O)[C@@H](N)CCCCN)[C@@H](C)CC)C(C)C)CCC/C=C\CCC[C@@](C)(C(=O)N[C@@H](Cc2ccccc2)C(=O)N[C@@H](CC(C)C)C(=O)N[C@@H](CCCNC(=N)N)C(=O)O)NC(=O)[C@H](CCCCN)NC1=O (H-KRIV[S5]RIK[S5]FLR-OH; staple (Z) 5-9) | > 320 µg/mL | 40 µg/mL (≈ 25.3 µM) | > 320 µg/mL | 40 µg/mL (≈ 25.3 µM)
11 | CO/N=C(\C(=O)N[C@@H]1C(=O)N2C(C(=O)O)=C(COC(C)=O)CS[C@H]12)c1csc(N)n1 [CEFOTAXIME] | > 320 µg/mL | 20 µg/mL (≈ 43.9 µM) | 2.5 µg/mL (≈ 5.49 µM) | > 320 µg/mL
12 | H-KRIVRRIKKFLR-OH | > 320 µg/mL | 80 µg/mL | > 320 µg/mL | 160 µg/mL
13 | H-KRIVRRIKDFLR-OH | > 320 µg/mL | 320 µg/mL | > 320 µg/mL | 320 µg/mL
14 | CC[C@H](C)[C@@H]1NC(=O)[C@H](CCCNC(=N)N)NC(=O)[C@H](CCCNC(=N)N)NC(=O)[C@@](C)(NC(=O)[C@@H](NC(=O)[C@H](CCCNC(=N)N)NC(=O)[C@@H](N)CCCCN)[C@@H](C)CC)CCC/C=C\CCC[C@@](C)(C(=O)N[C@@H](CCCNC(=N)N)C(=O)O)NC(=O)[C@H](Cc2ccccc2)NC(=O)[C@H]([C@@H](C)CC)NC(=O)[C@H](CCCCN)NC1=O (H-KRI[S5]RRIKIF[S5]R-OH; staple (Z) 4-11) | > 320 µg/mL | > 320 µg/mL | > 320 µg/mL | > 320 µg/mL
15 | H-LLGDFFRKSKEKIGKEF-OH | > 320 µg/mL | > 320 µg/mL | > 320 µg/mL | > 320 µg/mL
16 | H-KRIVIRIKIFLR-OH | 80 µg/mL | 20 µg/mL | 40 µg/mL | 20 µg/mL
17 | CC[C@H](C)[C@@H]1NC(=O)[C@H](CCCNC(=N)N)NC(=O)[C@H](CCCNC(=N)N)NC(=O)[C@H](C(C)C)NC(=O)[C@H]([C@@H](C)CC)NC(=O)[C@@](C)(NC(=O)[C@@H](N)CCCCN)CCC/C=C\CCC[C@@](C)(C(=O)N[C@@H](Cc2ccccc2)C(=O)N[C@@H](CC(C)C)C(=O)N[C@@H](CCCNC(=N)N)C(=O)O)NC(=O)[C@H](CCCCN)NC1=O (H-K[S5]IVRRIK[S5]FLR-OH; staple (Z) 2-9) | > 320 µg/mL | 320 µg/mL (≈ 203 µM) | > 320 µg/mL | 160 µg/mL (≈ 101 µM)
18 | CC[C@H](C)[C@H](NC(=O)[C@H](CCCCN)NC(=O)[C@]1(C)CCC/C=C\CCC[C@](C)(NC(=O)[C@H](CCCNC(=N)N)NC(=O)[C@@H](N)CCCCN)C(=O)N[C@@H](C(C)C)C(=O)N[C@@H](CCCNC(=N)N)C(=O)N[C@@H](CCCNC(=N)N)C(=O)N1)C(=O)N[C@@H](Cc1ccccc1)C(=O)N[C@@H](CC(C)C)C(=O)N[C@@H](CCCNC(=N)N)C(=O)O (H-KR[S5]VRR[S5]KIFLR-OH; staple (Z) 3-7) | 160 µg/mL (≈ 98.6 µM) | 320 µg/mL (≈ 197 µM) | 160 µg/mL (≈ 98.6 µM) | 40 µg/mL (≈ 24.7 µM)
19 | H-KRIVQRIKKFLR-OH | > 320 µg/mL | 80 µg/mL | > 320 µg/mL | 20 µg/mL
20 | H-KRIVKRIKIFLR-OH | > 320 µg/mL | 20 µg/mL | 80 µg/mL | 10 µg/mL
21 | H-KRIVIRIKDFLR-OH | > 320 µg/mL | 160 µg/mL | > 320 µg/mL | 80 µg/mL
22 | H-KRIVKRIKRFLR-OH | > 320 µg/mL | 80 µg/mL | > 320 µg/mL | 80 µg/mL
23 | CC[C@H](C)[C@H](NC(=O)[C@H](CCCNC(=N)N)NC(=O)[C@@H](N)CCCCN)C(=O)N[C@H](C(=O)N[C@@H](CCCNC(=N)N)C(=O)N[C@@H](CCCNC(=N)N)C(=O)N[C@H](C(=O)N[C@@]1(C)CCC/C=C\CCC[C@@](C)(C(=O)O)NC(=O)[C@H](CC(C)C)NC(=O)[C@H](Cc2ccccc2)NC(=O)[C@H]([C@@H](C)CC)NC1=O)[C@@H](C)CC)C(C)C (H-KRIVRRI[S5]IFL[S5]-OH; staple (Z) 8-12) | 40 µg/mL (≈ 25.6 µM) | 10 µg/mL (≈ 6.39 µM) | 80 µg/mL (≈ 51.1 µM) | 10 µg/mL (≈ 6.39 µM)
24 | H-KRIVIRIKRFLR-OH | 80 µg/mL | 20 µg/mL | 160 µg/mL | 10 µg/mL
25 | H-KRIVQRIKRFLR-OH | > 320 µg/mL | 160 µg/mL | > 320 µg/mL | 80 µg/mL
26 | CC[C@H](C)[C@H](NC(=O)[C@H](CCCCN)NC(=O)[C@@H](NC(=O)[C@]1(C)CCC/C=C\CCC[C@](C)(NC(=O)[C@@H](N)CCCCN)C(=O)N[C@@H]([C@@H](C)CC)C(=O)N[C@@H](C(C)C)C(=O)N[C@@H](CCCNC(=N)N)C(=O)N1)[C@@H](C)CC)C(=O)N[C@@H](Cc1ccccc1)C(=O)N[C@@H](CC(C)C)C(=O)N[C@@H](CCCNC(=N)N)C(=O)O (H-K[S5]IVR[S5]IKIFLR-OH; staple (Z) 2-6) | 320 µg/mL (≈ 208 µM) | 10 µg/mL (≈ 6.51 µM) | 320 µg/mL (≈ 208 µM) | 10 µg/mL (≈ 6.51 µM)
27 | H-KRIVKRIKDFLR-OH | > 320 µg/mL | 160 µg/mL | > 320 µg/mL | 80 µg/mL
28 | H-KRIVIRIKKFLR-OH | 320 µg/mL | 80 µg/mL | 160 µg/mL | 40 µg/mL
29 | CC[C@H](C)[C@H](NC(=O)[C@H](CCCCN)NC(=O)[C@@H](NC(=O)[C@H](CCCNC(=N)N)NC(=O)[C@]1(C)CCC/C=C/CCC[C@](C)(N)C(=O)N[C@@H](CCCNC(=N)N)C(=O)N[C@@H]([C@@H](C)CC)C(=O)N[C@@H](C(C)C)C(=O)N1)[C@@H](C)CC)C(=O)N[C@@H](Cc1ccccc1)C(=O)N[C@@H](CC(C)C)C(=O)N[C@@H](CCCNC(=N)N)C(=O)O (H-[S5]RIV[S5]RIKIFLR-OH; staple (E) 1-5) | 160 µg/mL (≈ 102 µM) | 10 µg/mL (≈ 6.39 µM) | 160 µg/mL (≈ 102 µM) | 10 µg/mL (≈ 6.39 µM)
